# “Also recorded” adds a separate entry of the source.
# Tested on: mouse
# Experiment: Angiogenesis in mice after subcutaneous injection of hydrogel composite matrix (HE-stained tissue sections)
# Format: in vivo
# Details: mice sacrificed 15 days after subcutaneous injection of the hydrogel; rank order against PBS control
# Description: S-1-P was dissolved in methanol and the solution was poured into a round bottom flask. S-1-P was then dried and spread onto the inner wall of the flask by decompression distillation. PBS was added into the flask followed by rapid freezing using liquid nitrogen. The mixture was then sonicated under room temperature to melt the S-1-P from the inner wall and form micelles. The resulting S-1-P micelles were mixed with chitin hydrogel and bFGF to give a composite matrix. The composite matrix was introduced into the mouse via subcutaneous injection.
# The mice were sacrificed 15 days after injecting the hydrogel. The implanted tissues were obtained, fixed, embedded, sectioned, stained, and observed under a 200 times microscope. The sizes and conditions of the blood vessels of the sections were observed. […] The arrows indicate the blood vessels. FIG. 2 is the average numbers of blood vessels of the tissue sections. It is shown that blood vessel number of the sections is bFGF/S-1-P>bFGF>PBS, which is in consistent with results shown in FIG. 1.
substance,measurement,value
bFGF: protein growth factor (fibroblast growth factor) used alone as the comparison sample,average numbers of blood vessels of the tissue sections (FIG. 2),larger than the PBS sample; also recorded: bFGF>PBS

# — patent US20030113379A1, “Biodegradable composite matrix for enhancing angiogenesis and method for producing the same” (INDUSTRIAL TECHNOLOGY RESEARCH INSTITUTE, priority 2001, published 2003)
